Experimental data published in patent US9247741B2, “Use of macrocyclic picolinamides as fungicides” (DOW AGROSCIENCES LLC, priority 2013, dated 2016).
Where two headings read alike, the source gives them in different places.

What was measured:
[1] = tested on: Mycosphaerella graminicola; Anamorph: Septoria tritici; assay: Leaf blotch of wheat (SEPTTR) disease control on wheat seedlings; format: in vivo; details: Zymoseptoria tritici, wheat; for pest or weed control at 121.5 g/ha: 121.5 g/H (low volume track spray); for pest or weed control at 100 ppm: 100 ppm (high volume)
Procedure: Evaluation of Fungicidal Activity: Leaf Blotch of Wheat (Mycosphaerella graminicola; Anamorph: Septoria tritici; Bayer Code […]) Technical grades of materials were dissolved in acetone, which were then mixed with nine volumes of water containing 110 ppm Triton X-100. The fungicide solutions were applied onto wheat seedlings using an automated booth sprayer to run-off. All sprayed plants were allowed to air dry prior to further handling. All fungicides were evaluated using the aforementioned method for their activity vs. all target diseases. Wheat leaf blotch and brown rust activity were also evaluated using track spray applications, in which case the fungicides were formulated as EC formulations, containing 0.1% Trycol 5941 in the spray solutions. Wheat plants (variety Yuma) were grown from seed in a greenhouse in 50% mineral soil/50% soil-less Metro mix until the first leaf was fully emerged, with 7-10 seedlings per pot. These plants were inoculated with an aqueous spore suspension of Septoria tritici either prior to or after fungicide treatments. After inoculation the plants were kept in 100% relative humidity (one day in a dark dew chamber followed by two to three days in a lighted dew chamber at 20° C.) to permit spores to germinate and infect the leaf. The plants were then transferred to a greenhouse set at 20° C. for disease to develop. When disease symptoms were fully expressed on the l^st leaves of untreated plants, infection levels were assessed on a scale of 0 to 100 percent disease severity. Percent disease control was calculated using the ratio of disease severity on treated plants relative to untreated plants.

Puccinia triticina = assay: Wheat brown rust (PUCCRT) disease control on wheat seedlings; format: in vivo; details: for pest or weed control at 121.5 g/ha: 121.5 g/H (low volume track spray); for pest or weed control at 100 ppm: 100 ppm (high volume)
Procedure: Technical grades of materials were dissolved in acetone, which were then mixed with nine volumes of water containing 110 ppm Triton X-100. The fungicide solutions were applied onto wheat seedlings using an automated booth sprayer to run-off. All sprayed plants were allowed to air dry prior to further handling. All fungicides were evaluated using the aforementioned method for their activity vs. all target diseases. Wheat leaf blotch and brown rust activity were also evaluated using track spray applications, in which case the fungicides were formulated as EC formulations, containing 0.1% Trycol 5941 in the spray solutions. Wheat plants (variety Yuma) were grown from seed in a greenhouse in 50% mineral soil/50% soil-less Metro mix until the first leaf was fully emerged, with 7-10 seedlings per pot. These plants were inoculated with an aqueous spore suspension of Septoria tritici either prior to or after fungicide treatments. After inoculation the plants were kept in 100% relative humidity (one day in a dark dew chamber followed by two to three days in a lighted dew chamber at 20° C.) to permit spores to germinate and infect the leaf. The plants were then transferred to a greenhouse set at 20° C. for disease to develop. When disease symptoms were fully expressed on the l^st leaves of untreated plants, infection levels were assessed on a scale of 0 to 100 percent disease severity. Percent disease control was calculated using the ratio of disease severity on treated plants relative to untreated plants. Evaluation of Fungicidal Activity: Wheat Brown Rust (Puccinia triticina; Synonym: Puccinia recondite f sp. tritici; Bayer code PUCCRT) Wheat plants (variety Yuma) were grown from seed in a greenhouse in 50% mineral soil/50% soil-less Metro mix until the first leaf was fully emerged, with 7-10 seedlings per pot. These plants were inoculated with an aqueous spore suspension of Puccinia triticina either prior to or after fungicide treatments. After inoculation the plants were kept in a dark dew room at 22° C. with 100% relative humidity overnight to permit spores to germinate and infect the leaf. The plants were then transferred to a greenhouse set at 24° C. for disease to develop. Fungicide formulation, application and disease assessment followed the procedures as described in the Example A.

[2] = 24 h, 1 Day Protectant, read-out: SEPTTR 1DP disease control rating
[3] = 72 h, 3 Day Curative, read-out: SEPTTR 3DC disease control rating
[4] = 24 h, 1 Day Protectant, read-out: PUCCRT 1DP disease control rating
[5] = 72 h, 3 Day Curative, read-out: PUCCRT 3DC disease control rating

| SMILES | pest or weed control at 121.5 g/ha [1, 2] | pest or weed control at 121.5 g/ha [1, 3] | pest or weed control at 121.5 g/ha (Puccinia triticina; [4]) | pest or weed control at 121.5 g/ha (Puccinia triticina; [5]) | pest or weed control at 100 ppm [1, 2] | pest or weed control at 100 ppm [1, 3] | pest or weed control at 100 ppm (Puccinia triticina; [4]) | pest or weed control at 100 ppm (Puccinia triticina; [5]) |
| --- | --- | --- | --- | --- | --- | --- | --- | --- |
| CCCC[C@H]1[C@H](C)OC(=O)[C@@H](NC(=O)c2nccc(OC)c2OC(C)=O)CCC[C@@H]1OCc1ccccc1 [Compound 63] | > 70% | > 70% | > 70% | > 70% | – | – | – | – |
| COc1ccnc(C(=O)N[C@H]2CCC[C@H](OC(=O)C3CC3)[C@@H](Cc3ccc(F)cc3)[C@H](C)OC2=O)c1O [Compound 2] | – | – | – | – | > 70% | < 70% | > 70% | > 70% |
| COc1ccnc(C(=O)N[C@H]2CCC[C@H](OCC3CC3)[C@@H](Cc3ccccc3)[C@H](C)OC2=O)c1OCOC(C)=O [Compound 56] | – | – | – | – | > 70% | > 70% | > 70% | > 70% |
| CCCC[C@H]1[C@H](C)OC(=O)[C@@H](NC(=O)c2nccc(OC)c2O)CCC[C@@H]1OCc1ccccc1 [Compound 47] | – | – | – | – | > 70% | < 70% | > 70% | > 70% |
| CCCC[C@H]1[C@H](C)OC(=O)[C@@H](NC(=O)c2nccc(OC)c2O)CCC[C@@H]1OCCCC(F)(F)F [Compound 13] | – | – | – | – | > 70% | < 70% | > 70% | < 70% |
| CCCC[C@H]1[C@H](C)OC(=O)[C@@H](NC(=O)c2nccc(OC)c2OCOC(C)=O)CCC[C@@H]1OCCCC(F)(F)F [Compound 52] | > 70% | > 70% | > 70% | > 70% | – | – | – | – |
| CCCC[C@H]1[C@H](C)OC(=O)[C@@H](NC(=O)c2nccc(OC)c2OC(C)=O)CCC[C@@H]1OC(=O)C(C)C [Compound 44] | > 70% | > 70% | > 70% | > 70% | – | – | – | – |
| COc1ccnc(C(=O)N[C@H]2CCC[C@H](Oc3ccc(C)cc3)[C@@H](Cc3ccc(F)cc3)[C@H](C)OC2=O)c1OC(C)=O [Compound 21] | > 70% | < 70% | > 70% | < 70% | – | – | – | – |
| CCCC[C@H]1[C@H](C)OC(=O)[C@@H](NC(=O)c2nccc(OC)c2O)CCC[C@@H]1Oc1ccccc1 [Compound 29] | – | – | – | – | > 70% | < 70% | > 70% | > 70% |
| CCCC[C@H]1[C@H](C)OC(=O)[C@@H](NC(=O)c2nccc(OC)c2OCOC(=O)COCC)CCC[C@@H]1OC(=O)C(C)C [Compound 71, (2S,3S,4S,8S)-3-butyl-8-(3-((2-ethoxyacetoxyl)methoxy)-4-methoxypicolinamido)-2-methyl-9-oxooxonan-4-yl isobutyrate] | > 70% | > 70% | > 70% | > 70% | – | – | – | – |
| COc1ccnc(C(=O)N[C@H]2CCC[C@H](OC(=O)C3CC3)[C@@H](Cc3ccc(F)cc3)[C@H](C)OC2=O)c1OCOC(C)=O [Compound 43] | > 70% | > 70% | > 70% | > 70% | – | – | – | – |
| COc1ccnc(C(=O)N[C@H]2CCC[C@H](OCc3ccccc3)[C@@H](CCC(C)C)[C@H](C)OC2=O)c1O [Compound 58] | – | – | – | – | < 70% | < 70% | > 70% | > 70% |
| COc1ccnc(C(=O)N[C@H]2CCC[C@H](Oc3ccc(C)cc3)[C@@H](Cc3ccccc3)[C@H](C)OC2=O)c1OC(C)=O [Compound 55] | > 70% | < 70% | > 70% | > 70% | – | – | – | – |
| COc1ccnc(C(=O)N[C@H]2CCC[C@H](OCC3CC3)[C@@H](Cc3ccccc3)[C@H](C)OC2=O)c1OC(C)=O [Compound 76] | – | – | – | – | > 70% | > 70% | > 70% | > 70% |
| CCCO[C@H]1CCC[C@H](NC(=O)c2nccc(OC)c2O)C(=O)O[C@@H](C)[C@@H]1Cc1ccc(F)cc1 [Compound 37] | – | – | – | – | > 70% | < 70% | > 70% | > 70% |
| COc1ccnc(C(=O)N[C@H]2CCC[C@H](OCC3CC3)[C@@H](Cc3ccc(F)cc3)[C@H](C)OC2=O)c1O [Compound 26] | – | – | – | – | > 70% | < 70% | > 70% | > 70% |
| COc1ccnc(C(=O)N[C@H]2CCC[C@H](OCC(C)C)[C@@H](Cc3ccccc3)[C@H](C)OC2=O)c1OCOC(C)=O [Compound 65] | > 70% | > 70% | > 70% | > 70% | – | – | – | – |
| CCCC[C@H]1[C@H](C)OC(=O)[C@@H](NC(=O)c2nccc(OC)c2OCOC(C)=O)CCC[C@@H]1OC(=O)C(C)C [Compound 50] | > 70% | > 70% | > 70% | > 70% | – | – | – | – |
| CCCC[C@H]1[C@H](C)OC(=O)[C@@H](NC(=O)c2nccc(OC)c2OCOC(C)=O)CCC[C@@H]1OCc1ccccc1 [Compound 15] | > 70% | > 70% | > 70% | > 70% | – | – | – | – |
| COc1ccnc(C(=O)N[C@H]2CCC[C@H](OCC(C)C)[C@@H](Cc3ccccc3)[C@H](C)OC2=O)c1OC(C)=O [Compound 72] | > 70% | > 70% | > 70% | > 70% | – | – | – | – |
| COc1ccnc(C(=O)N[C@H]2CCC[C@H](Oc3ccc(C)cc3)[C@@H](Cc3ccc(F)cc3)[C@H](C)OC2=O)c1OCOC(C)=O [Compound 42] | > 70% | > 70% | > 70% | < 70% | – | – | – | – |
| COc1ccnc(C(=O)N[C@H]2CCC[C@H](OCc3ccccc3)[C@@H](CCC(C)C)[C@H](C)OC2=O)c1OCOC(C)=O [Compound 1] | > 70% | > 70% | > 70% | > 70% | – | – | – | – |
| CCCO[C@H]1CCC[C@H](NC(=O)c2nccc(OC)c2OCOC(C)=O)C(=O)O[C@@H](C)[C@@H]1Cc1ccc(F)cc1 [Compound 7] | > 70% | > 70% | > 70% | > 70% | – | – | – | – |
| CCCC[C@H]1[C@H](C)OC(=O)[C@@H](NC(=O)c2nccc(OC)c2O)CCC[C@@H]1OC(=O)C(C)C [Compound 64] | – | – | – | – | > 70% | > 70% | > 70% | < 70% |
| COc1ccnc(C(=O)N[C@H]2CCC[C@H](Oc3ccc(C)cc3)[C@@H](Cc3ccc(F)cc3)[C@H](C)OC2=O)c1O [Compound 38] | – | – | – | – | > 70% | < 70% | > 70% | < 70% |
